Data reported in patent US6555569B2, “Use of heteroaryl substituted N-(indole-2-carbonyl-) amides for treatment of infection” (Pfizer Inc., priority 2000, dated 2003).
Converted amounts (≈) assume the structure as drawn.

How the values were obtained:
Chlamydia pneumoniae [1] = assay: Chlamydia pneumoniae infection of HEp-G2 cells, Protocol 1; assay type: cell-based; conditions: for MIC / MBC: Chlamydia pneumoniae, Protocol 1; for MIC: HEp-G2 cells, 72 h infection, lowest concentration that inhibited the formation of inclusions; for MBC: no inclusions after compound removed and further 48 h incubation; for activity against growth of C. pneumoniae in HEp-2 cells: as shown in Table 2
Procedure: (§1) Protocol 1 was performed in 96-well flat-bottom microtiter plates. Each well contained 100 μL of 10^6 HEp-G2 cells/ml in standard medium that had been incubated for 24 h at 37° C. in 5% CO2. Compound stocks were prepared in dimethylsulfoxide, diluted in two-fold serial dilutions, and added to each well as 10 μL aliquots. Each compound concentration was assayed in triplicate. Elementary bodies (chlamydial stock) were diluted to contain 2×10^4inclusion-forming units (ifu) per milliliter and 90 μL was added to each well. Infection was allowed to proceed for 72 h at 37° C. in 5% CO2, after which the cells were fixed and stained with genus-reactive anti-LPS antibody. The use of a fluorescein (FITC)-conjugated secondary antibody allowed the number of inclusion-containing cells to be identified via inverted fluorescent microscopy. The minimum inhibitory concentration (MIC) was defined as the lowest concentration of compound that inhibited the formation of inclusions. The minimal bactericidal concentration (MBC) was defined as the lowest concentration of compound that prevented the formation of inclusions after the compound had been removed by the addition of fresh medium and the cultures had been incubated for a further 48 h. Procedures for growth and preparation of C. pneumoniae and HEp-G2 cells are described in Kalayoglu, M. V., et al., J. Infect. Dis., 1999, 180:780-790. Methodology for detecting inclusions using an direct fluorescent antibody technique is found in Byrne, G. I., et al. J. Infect. Dis., 1993, 168:415-420.

Chlamydia pneumoniae [2] = assay: Chlamydia pneumoniae infection of HEp-G2 cells, Protocol 2 (compound added 15 h after challenge); assay type: cell-based; conditions: for MIC: Chlamydia pneumoniae, Protocol 2, compound added 15 h after challenge of HEp-G2 cells
Procedure: as §1
Protocol 2 was nearly identical to protocol 1 except that compound was added 15 h after challenge of HEp-G2 cells with C. pneumoniae. This protocol helps distinguish compounds that interfere with latter stages of C. pneumoniae growth and replication.

C. pneumoniae = C. pneumoniae protocol that treats HEp-G2 cells with cycloheximide; assay type: cell-based, Chlamydia pneumoniae; conditions: cycloheximide 1 μg/mL

MIC (Chlamydia pneumoniae [1]) [µg/mL] | MIC (Chlamydia pneumoniae [2]) [µg/mL] | MICs in a protocol that treats HEp-G2 cells with cycloheximide (C. pneumoniae) | SMILES | MBC (Chlamydia pneumoniae [1]) [µg/mL] | activity against growth of C. pneumoniae in HEp-2 cells (Chlamydia pneumoniae [1]) | interfering with the latter stage of pneumoniae growth and replication (Chlamydia pneumoniae [2]; comparison of compound 1 with compound 2)
12.5 (≈ 28.2 µM) | 12.5 (≈ 28.2 µM) | did not differ | O=C(N[C@@H](Cc1ccc(F)cc1)C(=O)N1CCC(O)CC1)c1cc2cc(Cl)ccc2[nH]1 [Compound 1] | 25 (≈ 56.3 µM) | exhibited activity | superior to compound 2
25 (≈ 62.8 µM) | 50 (≈ 126 µM) | did not differ | O=C(N[C@@H](Cc1ccccc1)C(=O)N1CC(O)C1)c1cc2cc(Cl)ccc2[nH]1 [Compound 2] | 25 (≈ 62.8 µM) | exhibited activity | –
